Test results as given in patent US9932572B2, “Modified Caspase polypeptides and uses thereof” (BELLICUM PHARMACEUTICALS, INC., priority 2013, dated 2018).
Where a chain is given by its changes, count along the chain named. Numbers in names are those of the source. Where two headings read alike, the source gives them in different places.

Key:
[1] = system: iCasp9M.IRES.GFPhigh-transduced CTLs; assay: SCID mouse-human xenograft model, human CD3+/GFP+ T cells in tumors; assay type: in vivo, NOD/SCID mice; conditions: single dose of CID (50 μg AP20187 i.p.) vs carrier; tumors 3 days after
Experimental: Non-obese diabetic severe combined immunodeficient (NOD/SCID) mice, 6 to 8 weeks of age, were irradiated (250 rad) and injected subcutaneously in the right flank with 10×10^6 to 15×10^6 LCLs resuspended in Matrigel (BD Bioscience). Two weeks later mice bearing tumors that were approximately 0.5 cm in diameter were injected into the tail vein with a 1:1 mixture of nontransduced and iCasp9.I.GFPhigh-transduced EBV CTLs (total 15×10^6). At 4 to 6 hours prior and 3 days after CTL infusion, mice were injected intraperitoneally with recombinant hIL-2 (2000 U; Proleukin; Chiron). On day 4, the mice were randomly segregated in 2 groups: 1 group received CID (50 μg AP20187, intraperitoneally) and 1 group received carrier only (16.7% propanediol, 22.5% PEG400, and 1.25% Tween 80, intraperitoneally). […] By FACS analysis, the number of GFP+ cells within the gated CD3^+ population was evaluated. […]
The function of iCasp9M in vivo, is graphically illustrated in FIG. 7. […] On day 3 after CTL administration, mice received either CID (50 μg AP20187; (black diamonds, n=6) or carrier only (black squares, n=5) and on day 6 the presence of human CD3+/GFP+ T cells in the tumors was analyzed. Human CD3+ T cells isolated from the tumors of a control group of mice that received only nontransduced CTLs (15×10^6 CTLs; n=4) were used as a negative control for the analysis of CD3+/GFP+ T cells within the tumors.

[2] = system: gene-modified allodepleted cells; assay: Induction of apoptosis with AP20187 in gene-modified allodepleted cells (annexin V/7-AAD); assay type: cell-based, human
Experimental: (§1) Suicide gene functionality was assessed by adding a small molecule synthetic homodimerizer, AP20187 (Ariad Pharmaceuticals; Cambridge, Mass.), at 10 nM final concentration the day following CD19 immunomagnetic selection. Cells were stained with annexin V and 7-amino-actinomycin (7-AAD)(BD Pharmingen) at 24 hours and analyzed by flow cytometry. Cells negative for both Annexin V and 7-AAD were considered viable, cells that were annexin V positive were apoptotic, and cells that were both annexin V and 7-AAD positive were necrotic. The percentage killing induced by dimerization was corrected for baseline viability as follows: Percentage killing=100%−(% Viability in AP20187-treated cells÷% Viability in non-treated cells).
Cells were maintained in T cell medium containing 50 U/ml IL-2 until 22 days after transduction. A portion of cells was reactivated on 24-well plates coated with […] OKT3 and 1 μg/ml anti-CD28 (Clone CD28.2, BD Pharmingen, San Jose, Calif.) for 48 to 72 hours. CD19 expression and suicide gene function in both reactivated and non-reactivated cells were measured on day 24 or 25 post transduction.

non-transduced cells = assay: Viability of non-transduced cells with AP20187; assay type: cell-based, human; conditions: non-transduced cells (n=6)
Experimental: as §1

iCasp9-transduced MSCs = assay: Apoptosis studies in vitro, undifferentiated MSCs (annexin V-PE/7-AAD); assay type: cell-based, human; conditions: magnetically immunoselected iCasp9-CD19-positive cells after exposure to CID
Experimental: Undifferentiated MSCs. The chemical inducer of dimerization (CID) (AP20187; ARIAD Pharmaceuticals, Cambridge, Mass.) was added at 50 nM to iCasp9-transduced MSCs cultures in complete medium. Apoptosis was evaluated 24 hours later by FACS analysis, after cell harvest and staining with annexin V-PE and 7-AAD in annexin V binding buffer (BD Biosciences, San Diego, Calif.). Control iCasp9-transduced MSCs were maintained in culture without exposure to CID.

[3] = system: iCasp9-ΔCD19-transduced MSCs; assay: In vivo killing of MSCs in SCID mouse model (qPCR); design: species or system SCID mice
CD3+ΔCD19+ cells = assay: CASPALLO phase 1 clinical trial, AP1903 in patients with GvHD after iCasp9+ T cells; assay type: in vivo, human; conditions: after AP1903 administration
Description: Three patients received iCasp9+ T cells after haplo-CD34^+ stem cell transplantation (SCT), at dose levels between about 1×10^6 to about 3×10^6 cells/kg.

[4] = molecular target: chimeric Caspase-9 polypeptide (Homo sapiens, UniProt P62942, F37V); conditions: cited from earlier work
[5] = cited from earlier work
HEK293T/16 cells = assay: Secreted alkaline phosphatase (SEAP) reporter-based surrogate killing assay; assay type: cell-based, human; conditions: for relative SEAP activity Units (basal activity): no AP1903, higher SEAP = lower basal activity; for basal signaling: compared to iCasp9 WT; for cost of higher IC50 to AP1903: versus unmodified iCasp9
Experimental: FIG. 45 provides an analysis of SEAP assays. To examine both basal signaling and AP1903-induced activity, 10^6 early-passage HEK293T/16 cells were co-transfected with various amounts of plasmids expressing Caspase-9 mutants along with 500 ng of SEAP reporter plasmid, used as a surrogate marker for cell viability. […] of the mixture was seeded onto each well of a 96-well plate. […] For the assay, 4-MUP was hydrolyzed by SEAP to 4-methylumbelliferon, a metabolite that can be excited at 364 nm and detected at an emission of 448 nm. Because SEAP is used as a marker for cell viability, reduced SEAP readings correspond with increased iCaspase-9 activities.
Early passage HEK293T/16 (ATCC, Manassas, Va.) was maintained in IMDM, GlutaMAX™ (Life Technologies, Carlsbad, Calif.) supplemented with 10% FBS, 100 U/mL penicillin, and 100 U/mL streptomycin until transfection in a humidified, 37° C., 5% CO2/95% air atmosphere. Cells in logarithmic-phase growth were transiently transfected with 800 ng to 2 μg of expression plasmid encoding iCasp9 mutants and 500 ng of an expression plasmid encoding SRα promoter driven SEAP per million cells in 15-mL conical tubes. […] GeneJammer® Transfection Reagent at a ratio of 3 μl per ug of plasmid DNA was used to transiently transfect HEK293T/16 in the absence of antibiotics. 100 μl or 2 mL of the transfection mixture was added to each well in 96-well or 6-well plate, respectively.
Briefly, after 65° C. heat denaturation for 45 minutes to reduce background caused by endogenous (and serum-derived) alkaline phosphatases that are sensitive to heat, 5 μl of supernatants was added to 95 μl of PBS and added to 100 μl of substrate buffer, containing 1 μl of 100 mM 4-methylumbelliferyl phosphate (4-MUP; Sigma, St. Louis, Mo.) re-suspended in 2 M diethanolamine. Hydrolysis of 4-MUP by SEAP produces a fluorescent […] with excitation/emission (355/460 nm), which can be easily measured. Assays were performed in black opaque 96-well plates to minimize fluorescence leakage between wells (FIG. 45).

[6] = 10 nM, 24 hours, day after immunomagnetic selection

chimeric Caspase-9 polypeptide, sequence (P62942 2-108 F37V limits assumed): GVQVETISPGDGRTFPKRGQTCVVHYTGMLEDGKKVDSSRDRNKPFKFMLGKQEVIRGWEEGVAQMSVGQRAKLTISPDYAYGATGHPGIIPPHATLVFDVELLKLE

In the case of `CC[C@H](C(=O)N1CCCC[C@H]1C(=O)O[C@H](CCc1ccc(OC)c(OC)c1)c1cccc(OCC(=O)NCC(CNC(=O)COc2cccc([C@@H](CCc3ccc(OC)c(OC)c3)OC(=O)[C@@H]3CCCCN3C(=O)[C@@H](CC)c3cc(OC)c(OC)c(OC)c3)c2)CN(C)C)c1)c1cc(OC)c(OC)c(OC)c1` [AP20187], the “reduction in the number of human CD3+/GFP+ T cells” value [1] is reported as greater than 99%, the “AP20187-treated cells remained viable” value [2, 6] is reported as “about 5.5%” and the “Killing efficiency after correction for baseline viability” value [2, 6] is reported as “about 92.9%”. The killing efficiency ([2]; reactivated, CD25 positive cells) was “about 93%”, the “viability with AP20187” value (non-transduced cells) was “about 86%” and the “selected cells become apoptotic” value (iCasp9-transduced MSCs) was “More than 95%”. The “proportion of surviving iCasp9-positive cells, % of the original population” value [3] was 0.7%.

For `CC[C@H](C(=O)N1CCCC[C@H]1C(=O)O[C@H](CCc1ccc(OC)c(OC)c1)c1cccc(OCC(=O)NCCNC(=O)COc2cccc([C@@H](CCc3ccc(OC)c(OC)c3)OC(=O)[C@@H]3CCCCN3C(=O)[C@@H](CC)c3cc(OC)c(OC)c(OC)c3)c2)c1)c1cc(OC)c(OC)c(OC)c1` (relative stereo) [AP1903, 2-Piperidinecarboxylic acid, 1-[(2S)-1-oxo-2-(3,4,5-trimethoxyphenyl)butyl]-, 1,2-ethanediylbis[imino(2-oxo-2,1-ethanediyl)oxy-3,1-phenylene[(1R)-3-(3,4-dimethoxyphenyl)propylidene]] ester, [2S-[1(R*),2R*[S*[S*[1(R*),2R*]]]]]-(9CI)], the “resolution of skin and liver aGvHD” value (CD3+ΔCD19+ cells) is given as no more than 24 h, the “amount of AP1903 needed in vitro for effective signaling of cells” value [4] is given as 10 to 100 nM and the “safety / adverse effects in Phase I study” value ([5]; 0.01 mg/kg to 1.0 mg/kg dose range, healthy volunteers, listed as API903) is given as “No serious adverse events”. The “plasma levels, % of maximal concentration” value ([5]; 2 hours post-dose) was roughly 7%, the “plasma levels, % of maximal concentration” value ([5]; 10 hours post-dose) was roughly 1% and the Doses well-tolerated ([5]; Phase I study) was “up to 1 mg/kg”.

B1: N405Q: chimeric modified Caspase-9 polypeptide, SEQ ID NO: 26 (protein)
chain: GFGDVGALESLRGNADLAYILSMEPCGHCLIINNVNFCRESGLRTRTGSNIDCEKLRRRFSSLHFMVEVKGDLTAKKMVLALLELARQDHGALDCCVVVILSHGCQASHLQFPGAVYGTDGCPVSVEKIVNIFNGTSCPSLGGKPKLFFIQACGGEQKDHGFEVASTSPEDESPGSNPEPDATPFQEGLRTFDQLDAISSLPTPSDIFVSYSTFPGFVSWRDPKSGSWYVETLDDIFEQWAHSEDLQSLLLRVANAVSVKGIYKQMPGCFQFLRKKLFFKTS
For B1, the “relative SEAP activity Units (basal activity)” value (“relative SEAP activity Units” below) (HEK293T/16 cells; 1 μg iCasp9 per million cells) was 179081 relative SEAP activity Units, the “relative SEAP activity Units” value (HEK293T/16 cells; 2 μg iCasp9 per million cells) was 175529 relative SEAP activity Units and the basal signaling (HEK293T/16 cells) was “lower basal signaling”. For the same molecule, the “cost of higher IC50 to AP1903” value (HEK293T/16 cells) was less than 10 fold.

B2: D330A: chimeric modified Caspase-9 polypeptide, SEQ ID NO: 24 (protein)
chain: B1 chain with D196A, Q271N
In the case of B2, the “relative SEAP activity Units” value (HEK293T/16 cells; 1 μg iCasp9 per million cells) is reported as 148928 relative SEAP activity Units, the “relative SEAP activity Units” value (HEK293T/16 cells; 2 μg iCasp9 per million cells) is reported as 136863 relative SEAP activity Units and the basal signaling (HEK293T/16 cells) is reported as “lower basal signaling”. For the same molecule, the “cost of higher IC50 to AP1903” value (HEK293T/16 cells) was less than 5 fold.

B3: D330A-N405Q: chimeric modified Caspase-9 polypeptide, double mutant, SEQ ID NO: 28 (protein)
chain: B1 chain with D196A
In the case of B3, the “relative SEAP activity Units” value (HEK293T/16 cells; 1 μg iCasp9 per million cells) is reported as 205772 relative SEAP activity Units, the “relative SEAP activity Units” value (HEK293T/16 cells; 2 μg iCasp9 per million cells) is reported as 174366 relative SEAP activity Units and the basal signaling (HEK293T/16 cells) is reported as “lower basal signaling”.
